{"source": "patent US20050118249A1", "about": "“Lipid carrier compositions and methods for improved drug retention” (priority 2001, published 2005)", "key": {"[1]": {"experiment": "Retention of FUDR in DSPC/DSPG/Chol liposomes in blood after intravenous injection", "format": "in vivo, Balb/c mice", "settings": "DSPC/DSPG/Chol (70:20:10) liposomes; intraliposomal solution of less than 500 mOsm/kg; i.v., 1, 4, 24 h", "protocol": "DSPC/DSPG/Chol (70:20:10 mole ratio) were prepared following the methods of Example 1 except that lipid films were hydrated in either saline or Cu(II)gluconate, pH 7.4 containing 25 mg/mL FUDR at 70° C. Cu(II)gluconate was added at either 100 or 200 mM (321 and 676 mOsm/kg, respectively) and the pH was adjusted to 7.4 by addition of triethanolamine (TEA). Trace amounts of 14C-CHE and ^3H-FUDR were used as lipid and drug markers, respectively. The resulting MLVs were extruded at 75° C. through two stacked 100 nm pore size filters for a total of ten passes. Liposomes were buffer exchanged into HBS, pH 7.4 using a hand-held tangential flow column. A total lipid dose of 3.3 μmoles (165 μmoles/kg) was administered to female Balb/c mice in a final volume of 200 μL immediately after preparation (within 1-2 hrs). Blood samples were removed by cardiac puncture 1, 4 and 24-hours post administration (3 mice per time point). Lipid and FUDR levels were determined using liquid scintillation counting and values were reported as the mean±SD."}, "[2]": {"experiment": "Retention of idarubicin in liposomes with varying internal citrate after intravenous injection", "format": "in vivo, Balb/c mice", "settings": "DSPC/DSPE-PEG2000 (95:5) liposomes; 300 mM citrate (>500 mOsm/kg) in relation to 100 and 150 mM (<500 mOsm/kg); i.v., 0.5-24 h", "description": "DSPC/DSPE-PEG2000 (95:5 mole ratio) liposomes prepared with 100, 150 and 300 mM citrate were also loaded with idarubicin at a drug to lipid mole ratio of 0.25:1. Loading was facilitated by incubating the drug and liposomes at 37° C. for 60 minutes. Liposomes were administered to Balb/c mice as indicated and blood samples were removed by cardiac puncture at 0.5, 1, 2, 4 and 24-hours post administration (3 mice per time point). Idarubicin concentration was quantitated using fluorescence intensity at 485 nm as the excitation wavelength and 535 nm as an emission wavelength and using an absorbance wavelength of 482 nm."}, "[3]": {"experiment": "Drug-to-lipid ratio of irinotecan before and after freezing of dual-loaded DSPC/DSPG liposomes", "format": "physicochemical", "settings": "0-20 mole % cholesterol, with FUDR, 250 mM CuSO4 inside (<500 mOsm/kg), frozen at -20° C. and -70° C. for 24 hours", "protocol": "FUDR and irinotecan were loaded into cholesterol-free liposomes containing a low osmolarity internal solution and drug retention and liposome size were measured prior to and after freezing. DSPC/DSPG liposomes containing 0-20 mole % cholesterol, 20 mole % DSPG and passively entrapped FUDR were prepared as described previously and hydrated in 250 mM CuSO4 (<500 mOsm/kg). The MLVs were extruded at 70° C. as detailed above and buffered exchanged into saline and then into 300 mM sucrose, 20 mM Hepes, 30 mM EDTA (SHE), pH 7.4 using a hand-held tangential flow column. The sample was then further exchanged into 300 mM sucrose, 20 mM Hepes, pH 7.4 to remove residual EDTA. The liposomes were subsequently loaded with irinotecan at a drug-to-lipid mole ratio of 0.1:1 by mixing the two solutions at 50° C. for five minutes. The dual-loaded liposomes were then buffered exchanged into HBS using tangential flow to remove any unencapsulated drug.\nThe influence of freezing on liposome stability was determined by freezing the liposomes at either −20° C. or −70° C. for 24 hours. […] Lipid and FUDR levels were quantified using liquid scintillation and absorbance at 370 nm was used to determine irinotecan concentration. Particle sizing of the liposomes was also determined prior to and after freezing using quasi-elastic light scattering."}, "[4]": {"experiment": "Retention of daunorubicin in liposomes in blood after intravenous injection (time course)", "format": "in vivo, Balb/c mice", "settings": "DSPC/DSPE-PEG2000 (95:5) liposomes; internal citrate 600 mOsm/kg (300 mM) in relation to 300 mOsm/kg (150 mM); i.v., 1, 4, 24 h", "protocol": "DSPC/DSPE-PEG2000 liposomes (95:5 mole ratio) containing 150 or 300 mM citrate (300 or 600 mOsm/kg), pH 4 and DSPC/Cholesterol (55:45 mole ratio) and DSPC/Cholesterol/DSPE-PEG2000 (50:45:5 mole ratio) liposomes containing 150 mM citrate, pH 4 were prepared as described in Example 1. Liposomes were subsequently combined with daunorubicin at a 0.2:1 drug to lipid mole ratio. To facilitate drug loading, the mixtures were incubated at 40° C. for 60 minutes.\nThe resulting daunorubicin-containing liposomes were administered to Balb/c female mice at a lipid dose of 165 μmoles/kg as detailed above. Blood samples were removed at 1, 4 and 24 hours post administration by cardiac puncture (3 mice per time point). Lipid levels were determined by liquid scintillation counting. Daunorubicin was extracted from plasma samples and quantified as follows: a defined volume of plasma was adjusted to 200 μL with distilled water followed by addition of 600 μL of distilled water, 100 μL of 10% SDS and 100 μL of 10 mM H2SO4. This solution was mixed and 2 mLs of 1:1 isopropanol/chloroform was added followed by vortexing. […] The bottom organic layer was removed and assayed for fluorescence intensity at 500 nm as the excitation wavelength (2.5 nm bandpass) and 550 nm as an emission wavelength (10 nm bandpass) and using an absorbance wavelength of 480 nm."}, "[5]": {"experiment": "Retention of daunorubicin in liposomes with varying internal citrate, 4 hours after injection", "format": "in vivo, Balb/c mice", "settings": "DSPC/DSPE-PEG2000 (95:5) liposomes; 100, 150 and 200 mM internal citrate (about 200, 300, 400 mOsm/kg); 4 hours after i.v. injection", "description": "DSPC/DSPE-PEG2000 (95:5 mole ratio) liposomes containing the non-exchangeable marker 3H-CHE were prepared as described in Example 1, except that lipid films were hydrated with 100, 150, 200, 250 or 300 mM citrate, pH 4.0 (corresponding to osmolarity levels of about 200, 300, 400, 500 or 600 mOsm/kg, respectively).\nDaunorubicin was loaded at a 0.2:1 drug-to-lipid mole ratio with the methods detailed above into each of the five liposomal formulations. The resulting liposomes were administered to female Balb/c mice at a lipid dose of 165 μmoles/kg in a final volume of 200 μL immediately after preparation (within 1-2 hrs). Blood samples were removed 4 hours after administration by cardiac puncture (3 mice per time point). Lipid and daunorubicin levels were determined as described previously and percent initial drug-to-lipid ratio was reported as the mean±SD."}, "[6]": {"experiment": "Retention of vincristine in liposomes in blood after intravenous injection", "format": "in vivo, Balb/c mice", "settings": "i.v., 1, 4, 24 h", "protocol": "Solutions of lipids in chloroform were combined to give a 95:5 molar ratio of DSPC/DSPE-PEG2000 or a 55:45 molar ratio of DSPC/Cholesterol, with trace amounts of ^14C-cholesteryl hexadecyl ether (^14C-CHE). The resulting mixtures were dried under a stream of nitrogen gas and placed in a vacuum pump overnight. The samples were hydrated at 70° C. with either 300 mM citrate, pH 4.0 (about 600 milliosmoles/kg (mOsm/kg)) or 150 mM citrate buffer, pH 4.0 (about 300 mOsm/kg) and passed through an extrusion apparatus (Northern Lipids Inc., Vancouver, BC) ten times with two 100 nm pore size polycarbonate filters at 70° C. Average liposome size was determined by quasi-elastic light scattering using a NICOMP 370 submicron particle sizer operating at a wavelength of 632.8 nm. The resulting liposomes were applied to a Sephadex G50 column equilibrated with HBS (20 mM HEPES, 150 mM NaCl, about 320 mOsm/kg), pH 7.45 to exchange the external liposomal buffer. […]\nVincristine-containing liposomes were administered intravenously to Balb/c mice at a lipid dose of 165 μmoles/kg in a final volume of 200 μL immediately after preparation (within 1-2 hrs). […] Lipid and vincristine levels were quantified by liquid scintillation counting and the values were reported as the mean ± standard deviation (SD)."}}, "data": [{"smiles": "O=c1[nH]c(=O)n([C@H]2C[C@H](O)[C@@H](CO)O2)cc1F", "note": "[FUDR, Floxuridine]", "values": [{"measurement": "FUDR retention (FUDR levels remaining in the blood)", "setting": "[1]", "result": "optimally retained"}]}, {"smiles": "CC(=O)[C@]1(O)Cc2c(O)c3c(c(O)c2[C@@H](O[C@H]2C[C@H](N)[C@H](O)[C@H](C)O2)C1)C(=O)c1ccccc1C3=O", "note": "[idarubicin]", "values": [{"measurement": "idarubicin retention (idarubicin-to-lipid mole ratio in the blood)", "setting": "[2]", "result": "significantly decreased"}]}, {"smiles": "CCc1c2c(nc3ccc(OC(=O)N4CCC(N5CCCCC5)CC4)cc13)-c1cc3c(c(=O)n1C2)COC(=O)[C@]3(O)CC", "note": "[irinotecan]", "values": [{"measurement": "retention of irinotecan after freezing (drug-to-lipid ratio)", "setting": "[3]", "result": "effectively retained"}]}, {"smiles": "COc1cccc2c1C(=O)c1c(O)c3c(c(O)c1C2=O)C[C@@](O)(C(C)=O)C[C@@H]3O[C@H]1C[C@H](N)[C@H](O)[C@H](C)O1", "note": "[daunorubicin]", "values": [{"measurement": "daunorubicin retention (percent initial daunorubicin-to-lipid ratio remaining in the blood)", "setting": "[4]", "result": "compromised"}, {"measurement": "retention of daunorubicin (percent initial daunorubicin-to-lipid ratio remaining in the blood)", "setting": "[5]", "result": "optimal retention"}]}, {"smiles": "CC[C@]1(O)C[C@H]2CN(CCc3c([nH]c4ccccc34)[C@@](C(=O)OC)(c3cc4c(cc3OC)N(C=O)[C@H]3[C@@](O)(C(=O)OC)[C@H](OC(C)=O)[C@]5(CC)C=CCN6CC[C@]43[C@@H]65)C2)C1", "note": "[vincristine]", "values": [{"measurement": "retention of vincristine (percent initial vincristine-to-lipid weight ratio in the blood)", "setting": "[6]; DSPC/DSPE-PEG2000 (95:5 mole ratio) liposomes, internal citrate 300 mOsm/kg (150 mM) compared to 600 mOsm/kg (300 mM)", "result": "significantly enhanced"}, {"measurement": "retention of vincristine (percent initial vincristine-to-lipid weight ratio in the blood)", "setting": "[6]; DSPC/cholesterol (55:45 mole ratio) liposomes, 150 mM vs 300 mM internal citrate", "result": "independent of the osmolarity of the intraliposomal solution"}]}]}
